Results as given in patent US8232401B2 (Japan Tobacco Inc., priority 2002, dated 2012).
pIC50: −log10 of the molar value.

Molecular target: T1, HIV integrase (Human immunodeficiency virus type 1 group M subtype B, UniProt P12497, F1332H)
T1 construct: HIV integrase full length gene; made in house; host or cells: Escherichia coli BL21(DE3)
Assay: Determination of enzyme (HIV integrase) inhibitory activity (strand transfer, microtiter plate, absorbance at 450 nm)
Format: biochemical, HIV (Human Immunodeficiency Virus (type 1))
Conditions: recombinant HIV integrase (F185H) expressed in E. coli; donor DNA on streptavidin plate, digoxigenin target DNA; 37° C.

`COc1cc(Cc2cccc(Cl)c2Cl)cc2c(=O)c(C(=O)O)cn(CCO)c12` [Example 3-14, 6-(2,3-Dichlorobenzyl)-1-(2-hydroxyethyl)-8-methoxy-4-oxo-1,4-dihydroquinoline-3-carboxylic acid] showed a pIC50 of 7.85.
Work on `O=C(O)c1cn(CCO)c2ccc(Cc3ccc(F)c(Cl)c3F)cc2c1=O` [Example 3-17, 6-(3-Chloro-2,4-difluorobenzyl)-1-(2-hydroxyethyl)-4-oxo-1,4-dihydroquinoline-3-carboxylic acid] yielded a pIC50 of 7.89.
With `CCOc1cc2c(cc1Cc1cccc(Cl)c1Cl)c(=O)c(C(=O)O)cn2CCO` [Example 3-20, 6-(2,3-Dichlorobenzyl)-7-ethoxy-1-(2-hydroxyethyl)-4-oxo-1,4-dihydroquinoline-3-carboxylic acid] the pIC50 was 8.00.
With `O=C(O)c1cn(CCO)c2cc(Cl)c(Cc3cccc(Cl)c3Cl)cc2c1=O` [Example 3-21, 7-Chloro-6-(2,3-dichlorobenzyl)-1-(2-hydroxyethyl)-4-oxo-1,4-dihydroquinoline-3-carboxylic acid] the pIC50 was 7.52.
For `O=C(O)c1cn(CCO)c2cc(C(F)(F)F)c(Cc3cccc(Cl)c3Cl)cc2c1=O` [Example 3-22, 6-(2,3-Dichlorobenzyl)-1-(2-hydroxyethyl)-4-oxo-7-trifluoromethyl-1,4-dihydroquinoline-3-carboxylic acid], the pIC50 was 6.10.
`C[C@@H](CO)n1cc(C(=O)O)c(=O)c2cc(Cc3cccc(Cl)c3F)ccc21` [Example 3-23, (S)-6-(3-Chloro-2-fluorobenzyl)-1-(2-hydroxy-1-methylethyl)-4-oxo-1,4-dihydroquinoline-3-carboxylic acid] gave a pIC50 of 8.14.
Compound `C[C@H](CO)n1cc(C(=O)O)c(=O)c2cc(Cc3cccc(Cl)c3F)ccc21` [Example 3-24, (R)-6-(3-Chloro-2-fluorobenzyl)-1-(2-hydroxy-1-methylethyl)-4-oxo-1,4-dihydroquinoline-3-carboxylic acid] has a pIC50 of 7.41.
In the case of `O=C(O)c1cn(CCO)c2c(C(F)(F)F)cc(Cc3cccc(Cl)c3F)cc2c1=O` [Example 3-25, 6-(3-Chloro-2-fluorobenzyl)-1-(2-hydroxyethyl)-4-oxo-8-trifluoromethyl-1,4-dihydroquinoline-3-carboxylic acid], the pIC50 was 7.16.
In the case of `O=C(O)c1cn(C(CO)CO)c2ccc(Cc3cccc(Cl)c3F)cc2c1=O` [Example 3-26, 6-(3-Chloro-2-fluorobenzyl)-1-[2-hydroxy-1-(hydroxymethyl)ethyl]-4-oxo-1,4-dihydroquinoline-3-carboxylic acid], the pIC50 was 7.96.
For `N#Cc1cc2c(cc1Cc1cccc(Cl)c1Cl)c(=O)c(C(=O)O)cn2CCO` [Example 3-27, 7-Cyano-6-(2,3-dichlorobenzyl)-1-(2-hydroxyethyl)-4-oxo-1,4-dihydroquinoline-3-carboxylic acid], the pIC50 was 7.12.
`CC(C)(C)n1cc(C(=O)O)c(=O)c2cc(Cc3cccc(Cl)c3F)ccc21` [Example 3-33, 1-tert-Butyl-6-(3-Chloro-2-fluorobenzyl)-4-oxo-1,4-dihydroquinoline-3-carboxylic acid] gave a pIC50 of 8.06.
Compound `COc1cc(Cc2cccc(Cl)c2F)cc2c(=O)c(C(=O)O)cn(CCO)c12` [Example 3-34, 6-(3-Chloro-2-fluorobenzyl)-1-(2-hydroxyethyl)-8-methoxy-4-oxo-1,4-dihydroquinoline-3-carboxylic acid] has a pIC50 of 7.96.
In the case of `Nc1cc(Cc2cccc(Cl)c2F)cc2c(=O)c(C(=O)O)cn(CCO)c12` [Example 3-35, 8-Amino-6-(3-chloro-2-fluorobenzyl)-1-(2-hydroxyethyl)-4-oxo-1,4-dihydroquinoline-3-carboxylic acid], the pIC50 was 7.96.
Work on `O=C(O)c1cc2c(cc1Cc1cccc(Cl)c1Cl)c(=O)c(C(=O)O)cn2CCO` [Example 3-36, 7-Carboxy-6-(2,3-dichlorobenzyl)-1-(2-hydroxyethyl)-4-oxo-1,4-dihydroquinoline-3-carboxylic acid] yielded a pIC50 of 7.29.
For `COc1cc(Cc2c(F)ccc(Cl)c2F)cc2c(=O)c(C(=O)O)cn(CCO)c12` [Example 3-37, 6-(3-Chloro-2,6-difluorobenzyl)-1-(2-hydroxyethyl)-8-methoxy-4-oxo-1,4-dihydroquinoline-3-carboxylic acid], the pIC50 was 7.96.
Compound `CN(C)c1cc(Cc2cccc(Cl)c2F)cc2c(=O)c(C(=O)O)cn(CCO)c12` [Example 3-38, 6-(3-Chloro-2-fluorobenzyl)-8-dimethylamino-(2-hydroxyethyl)-4-oxo-1,4-dihydroquinoline-3-carboxylic acid] has a pIC50 of 7.82.
With `CC(=O)Nc1cc(Cc2cccc(Cl)c2F)cc2c(=O)c(C(=O)O)cn(CCO)c12` [Example 3-39, 8-Acetylamino-6-(3-chloro-2-fluorobenzyl)-1-(2-hydroxyethyl)-4-oxo-1,4-dihydroquinoline-3-carboxylic acid] the pIC50 was 7.31.
`CCN(CC)c1ccccc1Cc1ccc2c(c1)c(=O)c(C(=O)O)cn2CCO` [Example 3-42, 6-(2-Diethylaminobenzyl)-1-(2-hydroxyethyl)-4-oxo-1,4-dihydroquinoline-3-carboxylic acid] was tested, and the pIC50 was 6.14.
`CC(C)(CO)n1cc(C(=O)O)c(=O)c2cc(Cc3cccc(Cl)c3F)ccc21` [Example 3-43, 6-(3-Chloro-2-fluorobenzyl)-1-(1,1-dimethyl-2-hydroxyethyl)-4-oxo-1,4-dihydroquinoline-3-carboxylic acid] showed a pIC50 of 7.74.
Work on `CCOc1cc2c(cc1Cc1cccc(Cl)c1F)c(=O)c(C(=O)O)cn2CCO` [Example 3-44, 6-(3-Chloro-2-fluorobenzyl)-7-ethoxy-1-(2-hydroxyethyl)-4-oxo-1,4-dihydroquinoline-3-carboxylic acid] yielded a pIC50 of 8.02.
`COc1c(Cc2cccc(Cl)c2F)cc2c(=O)c(C(=O)O)cn(CCO)c2c1OC` [Example 3-45, 6-(3-Chloro-2-fluorobenzyl)-7,8-dimethoxy-1-(2-hydroxyethyl)-4-oxo-1,4-dihydroquinoline-3-carboxylic acid] showed a pIC50 of 7.82.
With `CCOc1cc(Cc2cccc(Cl)c2F)cc2c(=O)c(C(=O)O)cn(CCO)c12` [Example 3-47, 6-(3-Chloro-2-fluorobenzyl)-8-ethoxy-1-(2-hydroxyethyl)-4-oxo-1,4-dihydroquinoline-3-carboxylic acid] the pIC50 was 8.07.
Compound `CNc1cc(Cc2cccc(Cl)c2F)cc2c(=O)c(C(=O)O)cn(CCO)c12` [Example 3-48, 6-(3-Chloro-2-fluorobenzyl)-1-(2-hydroxyethyl)-8-methylamino-4-oxo-1,4-dihydroquinoline-3-carboxylic acid] has a pIC50 of 7.68.
`CCCOc1cc2c(cc1Cc1cccc(Cl)c1F)c(=O)c(C(=O)O)cn2CCO` [Example 3-49, 6-(3-Chloro-2-fluorobenzyl)-1-(2-hydroxyethyl)-4-oxo-7-propyloxy-1,4-dihydroquinoline-3-carboxylic acid] gave a pIC50 of 8.10.
For `CN(C)/C=N/c1cc2c(cc1Cc1cccc(Cl)c1F)c(=O)c(C(=O)O)cn2CCO` [Example 3-50, 6-(3-Chloro-2-fluorobenzyl)-7-(dimethylaminomethyleneamino)-1-(2-hydroxyethyl)-4-oxo-1,4-dihydroquinoline-3-carboxylic acid], the pIC50 was 7.74.
Work on `O=C(O)c1cn(CCO)c2c(Oc3ccccc3)cc(Cc3cccc(Cl)c3F)cc2c1=O` [Example 3-52, 6-(3-Chloro-2-fluorobenzyl)-1-(2-hydroxyethyl)-4-oxo-8-phenoxy-1,4-dihydroquinoline-3-carboxylic acid] yielded a pIC50 of 7.92.
For `CC(C)Oc1cc2c(cc1Cc1cccc(Cl)c1F)c(=O)c(C(=O)O)cn2CCO` [Example 3-53, 6-(3-Chloro-2-fluorobenzyl)-1-(2-hydroxyethyl)-7-isopropyloxy-4-oxo-1,4-dihydroquinoline-3-carboxylic acid], the pIC50 was 8.10.
In the case of `CCCNc1cc(Cc2cccc(Cl)c2F)cc2c(=O)c(C(=O)O)cn(CCO)c12` [Example 3-54, 6-(3-Chloro-2-fluorobenzyl)-1-(2-hydroxyethyl)-4-oxo-8-propylamino-1,4-dihydroquinoline-3-carboxylic acid], the pIC50 was 8.19.
For `CCNc1cc(Cc2cccc(Cl)c2F)cc2c(=O)c(C(=O)O)cn(CCO)c12` [Example 3-55, 6-(3-Chloro-2-fluorobenzyl)-8-ethylamino-1-(2-hydroxyethyl)-4-oxo-1,4-dihydroquinoline-3-carboxylic acid], the pIC50 was 8.06.
With `COc1cc(Cc2cccc(Cl)c2F)cc2c(=O)c(C(=O)O)cn([C@@H](C)CO)c12` [Example 3-56, (S)-6-(3-Chloro-2-fluorobenzyl)-1-(2-hydroxy-1-methylethyl)-8-methoxy-4-oxo-1,4-dihydroquinoline-3-carboxylic acid] the pIC50 was 7.92.
`COc1cc(Cc2c(F)ccc(Cl)c2F)cc2c(=O)c(C(=O)O)cn([C@@H](C)CO)c12` [Example 3-57, (S)-6-(3-Chloro-2,6-difluorobenzyl)-1-(2-hydroxy-1-methylethyl)-8-methoxy-4-oxo-1,4-dihydroquinoline-3-carboxylic acid] showed a pIC50 of 7.82.
`CCCOc1cc(Cc2cccc(Cl)c2F)cc2c(=O)c(C(=O)O)cn(CCO)c12` [Example 3-58, 6-(3-Chloro-2-fluorobenzyl)-1-(2-hydroxyethyl)-4-oxo-8-propyloxy-1,4-dihydroquinoline-3-carboxylic acid] gave a pIC50 of 8.10.
For `CC(C)Oc1cc(Cc2cccc(Cl)c2F)cc2c(=O)c(C(=O)O)cn(CCO)c12` [Example 3-59, 6-(3-Chloro-2-fluorobenzyl)-1-(2-hydroxyethyl)-8-isopropyloxy-4-oxo-1,4-dihydroquinoline-3-carboxylic acid], the pIC50 was 8.10.
In the case of `CC[C@@H](CO)n1cc(C(=O)O)c(=O)c2cc(Cc3cccc(Cl)c3F)ccc21` [Example 3-60, (S)-6-(3-Chloro-2-fluorobenzyl)-1-[1-(hydroxymethyl)propyl]-4-oxo-1,4-dihydroquinoline-3-carboxylic acid], the pIC50 was 8.26.
`CCOc1cc2c(cc1Cc1cccc(Cl)c1F)c(=O)c(C(=O)O)cn2[C@@H](C)CO` [Example 3-61, (S)-6-(3-Chloro-2-fluorobenzyl)-7-ethoxy-1-(2-hydroxy-1-methylethyl)-4-oxo-1,4-dihydroquinoline-3-carboxylic acid] was tested, and the pIC50 was 8.12.
